This is an account of results in ChEMBL document CHEMBL3217574, “Discovery of CP-866,087, a mu opioid receptor antagonist for the treatment of alcohol abuse and dependence” (Medchemcomm, 2011).

Data set [1] is described as follows: Total plasma concentration in rat at 1 mg/kg, sc at 0.75 hrs time-point. In kind it is ADME, organism-based. On the set-up: dose 1 mg/kg, route subcutaneous.
Data set [2] deals with T1, Mu-type opioid receptor (Homo sapiens, UniProt P35372). The experiment in a line: Displacement of [3H]diprenorphine from human mu opioid receptor expressed in cells after 1 hr by liquid scintillation counting analysis. The class given is cell-based. On the technique in general: In a radioligand displacement assay an active substance lowers the binding of a labelled ligand.
T1 sequence (P35372 whole entry): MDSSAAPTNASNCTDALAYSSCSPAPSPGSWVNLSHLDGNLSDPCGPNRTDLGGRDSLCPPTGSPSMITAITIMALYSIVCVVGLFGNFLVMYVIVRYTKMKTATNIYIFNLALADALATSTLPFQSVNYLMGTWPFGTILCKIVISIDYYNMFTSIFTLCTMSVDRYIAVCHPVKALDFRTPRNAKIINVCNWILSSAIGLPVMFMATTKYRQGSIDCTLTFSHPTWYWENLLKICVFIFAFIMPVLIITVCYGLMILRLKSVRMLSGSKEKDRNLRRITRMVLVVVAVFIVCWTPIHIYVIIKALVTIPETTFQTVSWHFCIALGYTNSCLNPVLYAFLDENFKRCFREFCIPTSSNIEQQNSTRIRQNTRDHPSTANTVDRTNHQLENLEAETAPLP

Data set [3] in a line: Fraction unbound in rat at 1 mg/kg, sc at 0.75 hrs time-point. The class given is ADME, organism-based. On the set-up: dose 1 mg/kg, route subcutaneous. Conditions: plasma.
Data set [4] can be described thus: Clearance in rat. In kind it is ADME, organism-based. Conditions: in vivo.
Data set [5] relates to Rattus norvegicus. The data set can be described thus: Reduction in alcohol intake in alcohol-preferring rat at 5.6 mg/kg, sc after 30 mins. The class given is functional. Conditions: 0.5 h, route subcutaneous.
Data set [6] in a line: Ratio of drug level in rat brain to plasma at 1 mg/kg, sc at 0.75 hrs time-point. Conditions: read-out: BPR. The class given is ADME, organism-based. More on the design: dose 1 mg/kg, route subcutaneous.
Data set [7] can be described thus: Drug level in rat cerebrospinal fluid at 1 mg/kg, sc at 0.75 hrs time-point. In kind it is ADME, organism-based. More on the design: dose 1 mg/kg, route subcutaneous. Conditions: read-out: Drug uptake.
The nature of data set [8]: Half life in rat. In kind it is ADME, organism-based. Conditions: in vivo.
The subject of data set [9] is Rattus norvegicus. The data set can be described thus: Reduction in alcohol intake in alcohol-preferring rat at 1 mg/kg, sc after 30 mins. The class given is functional. Conditions: 0.5 h, route subcutaneous.
For data set [10], the target named is Kappa-type opioid receptor (Homo sapiens, UniProt P41145). The data set can be described thus: Displacement of [3H]diprenorphine from human kappa opioid receptor expressed in cells after 1 hr by liquid scintillation counting analysis. The class given is cell-based.
Kappa-type opioid receptor, sequence (P41145 whole entry): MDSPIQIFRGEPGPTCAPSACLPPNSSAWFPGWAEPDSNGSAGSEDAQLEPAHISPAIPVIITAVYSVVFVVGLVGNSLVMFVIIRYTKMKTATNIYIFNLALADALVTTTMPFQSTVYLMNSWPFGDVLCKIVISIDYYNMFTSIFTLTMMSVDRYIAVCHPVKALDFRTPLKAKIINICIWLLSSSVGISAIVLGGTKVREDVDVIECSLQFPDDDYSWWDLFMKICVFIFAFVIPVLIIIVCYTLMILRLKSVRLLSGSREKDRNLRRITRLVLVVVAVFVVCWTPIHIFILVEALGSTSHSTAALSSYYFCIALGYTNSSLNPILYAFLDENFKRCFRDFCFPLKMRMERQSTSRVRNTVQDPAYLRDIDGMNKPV
Data set [11] in a line: Intrinsic clearance in human liver microsomes. The class given is ADME. Conditions: read-out: CLH. For orientation: Microsomes from liver hold many membrane-bound enzymes, among them those of drug oxidation.
The target in a further data set is CYP2D6 (Homo sapiens, UniProt P10635). The experiment in a line: Inhibition of CYP2D6 (unknown origin) at 3 uM after 8 mins. In kind it is ADME.
CYP2D6, sequence (P10635 whole entry): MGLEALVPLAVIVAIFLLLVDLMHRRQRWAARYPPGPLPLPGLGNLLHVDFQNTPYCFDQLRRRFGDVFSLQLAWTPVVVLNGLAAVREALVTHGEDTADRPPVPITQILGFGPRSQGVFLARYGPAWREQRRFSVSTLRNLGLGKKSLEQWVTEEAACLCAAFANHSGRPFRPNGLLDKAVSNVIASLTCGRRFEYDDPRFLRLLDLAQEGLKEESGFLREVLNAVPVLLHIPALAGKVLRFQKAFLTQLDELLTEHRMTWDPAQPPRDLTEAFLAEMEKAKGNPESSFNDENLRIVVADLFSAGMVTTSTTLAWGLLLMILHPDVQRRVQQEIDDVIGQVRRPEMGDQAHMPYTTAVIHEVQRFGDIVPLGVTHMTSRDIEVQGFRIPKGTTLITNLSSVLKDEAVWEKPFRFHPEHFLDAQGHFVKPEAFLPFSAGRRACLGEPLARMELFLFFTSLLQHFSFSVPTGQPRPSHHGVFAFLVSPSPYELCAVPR
Data set [12] has as its target T1, Mu-type opioid receptor. The experiment in a line: Antagonist activity at human mu opioid receptor expressed in CHO cells assessed as [35S]-GTPgammaS binding after 1 hr by liquid scintillation counting analysis. In kind it is functional, cell-based. Background: GTPγS resists hydrolysis and so accumulates on activated G proteins.
Data set [13] is described as follows: Volume of distribution in rat. In kind it is ADME, organism-based. Conditions: in vivo.
In data set [14] the test system is Rattus norvegicus. The experiment in a line: Antagonist activity against morphine-induced antinociception in sc dosed rat assessed as reversal of latency increase. The class given is functional.
The subject of data set [15] is Rattus norvegicus. The data set can be described thus: Reduction in alcohol intake in sc dosed alcohol-preferring rat after 30 mins. The class given is functional, organism-based.
In data set [16] the target is Delta-type opioid receptor (Homo sapiens, UniProt P41143). The data set can be described thus: Displacement of [3H]diprenorphine from human delta opioid receptor expressed in cells after 1 hr by liquid scintillation counting analysis. In kind it is cell-based.
Delta-type opioid receptor, sequence (P41143 whole entry): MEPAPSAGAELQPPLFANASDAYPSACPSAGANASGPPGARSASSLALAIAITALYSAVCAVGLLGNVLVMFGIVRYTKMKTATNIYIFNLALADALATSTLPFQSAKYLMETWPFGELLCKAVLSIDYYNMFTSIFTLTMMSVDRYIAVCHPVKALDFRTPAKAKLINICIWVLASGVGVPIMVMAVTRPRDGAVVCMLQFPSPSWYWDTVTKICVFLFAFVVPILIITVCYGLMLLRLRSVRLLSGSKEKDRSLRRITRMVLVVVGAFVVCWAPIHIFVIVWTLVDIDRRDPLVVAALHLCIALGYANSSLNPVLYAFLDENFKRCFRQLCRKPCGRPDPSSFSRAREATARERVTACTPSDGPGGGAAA
For another data set, the system named is human MDR1 (P-gp). The experiment in a line: Efflux ratio of apparent permeability from basolateral to apical side over apical to basolateral side in MDCK cells transfected with human MDR1. Conditions: dog. The class given is ADME, cell-based, Canis lupus familiaris.
The species entered for data set [17] is Homo sapiens. The experiment in a line: Ratio of ki for human mu opioid receptor to human kappa opioid receptor.
For data set [18], the species on record is Homo sapiens. The experiment in a line: Ratio of Ki for human mu opioid receptor to Ki for human delta opioid receptor.
The target in data set [19] is Voltage-gated inwardly rectifying potassium channel KCNH2 (Homo sapiens, UniProt Q12809). The experiment in a line: Inhibition of human ERG by [3H]dofetilide binding assay.
Voltage-gated inwardly rectifying potassium channel KCNH2, sequence (Q12809 whole entry): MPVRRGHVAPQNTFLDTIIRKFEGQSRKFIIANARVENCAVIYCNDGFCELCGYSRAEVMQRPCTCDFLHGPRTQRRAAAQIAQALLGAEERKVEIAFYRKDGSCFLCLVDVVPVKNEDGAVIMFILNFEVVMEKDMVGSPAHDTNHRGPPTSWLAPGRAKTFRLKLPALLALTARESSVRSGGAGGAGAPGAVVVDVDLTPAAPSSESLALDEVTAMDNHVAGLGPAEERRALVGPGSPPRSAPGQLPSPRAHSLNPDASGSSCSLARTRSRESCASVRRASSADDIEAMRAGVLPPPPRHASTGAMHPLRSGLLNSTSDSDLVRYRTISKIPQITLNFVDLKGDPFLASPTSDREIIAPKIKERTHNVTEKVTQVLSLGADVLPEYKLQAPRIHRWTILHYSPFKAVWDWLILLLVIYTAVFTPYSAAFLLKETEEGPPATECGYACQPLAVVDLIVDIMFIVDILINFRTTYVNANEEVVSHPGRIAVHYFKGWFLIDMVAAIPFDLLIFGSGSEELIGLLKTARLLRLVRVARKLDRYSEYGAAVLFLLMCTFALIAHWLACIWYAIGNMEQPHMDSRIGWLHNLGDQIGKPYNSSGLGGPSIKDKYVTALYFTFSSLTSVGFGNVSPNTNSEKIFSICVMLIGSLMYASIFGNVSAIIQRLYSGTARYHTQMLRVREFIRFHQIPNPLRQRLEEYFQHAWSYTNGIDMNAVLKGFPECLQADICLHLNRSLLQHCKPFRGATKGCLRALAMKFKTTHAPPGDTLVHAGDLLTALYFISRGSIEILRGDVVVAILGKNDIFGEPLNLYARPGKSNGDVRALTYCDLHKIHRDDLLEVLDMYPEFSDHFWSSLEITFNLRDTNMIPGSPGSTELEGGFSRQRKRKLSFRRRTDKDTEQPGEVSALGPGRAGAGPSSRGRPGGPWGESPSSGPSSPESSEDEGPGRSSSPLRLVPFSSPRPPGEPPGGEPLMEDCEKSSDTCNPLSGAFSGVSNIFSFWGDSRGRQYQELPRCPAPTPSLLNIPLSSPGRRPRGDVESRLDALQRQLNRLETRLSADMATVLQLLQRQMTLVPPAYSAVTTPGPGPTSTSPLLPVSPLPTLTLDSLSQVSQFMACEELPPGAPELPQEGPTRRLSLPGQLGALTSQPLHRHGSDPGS
Data set [20] in a line: Inhibition of IC20 for human ERG over plasma efficacious concentration. The class given is functional.
The target in the next data set is hERG (KCNH2) (Homo sapiens, UniProt Q12809). The data set can be described thus: Inhibition of human ERG.
hERG (KCNH2), sequence (Q12809 whole entry): as above
Data set [21] relates to Rattus norvegicus. The experiment in a line: Reduction in alcohol intake in alcohol-preferring rat at 3 mg/kg, sc after 30 mins. In kind it is functional. Conditions: 0.5 h, route subcutaneous.

As a reminder, the Ki is the dissociation constant of the complex between target and ligand, obtained from inhibition or displacement. As usually defined, the fraction unbound is free concentration divided by total concentration. Higher therefore signals much free substance. For orientation: clearance means the volume of plasma or blood freed of the substance per unit of time. A low value points to inefficient removal. What is called inhibition in vivo is the change of the read-out against control, counted positive when it falls. A higher inhibition in vivo goes with a strong effect. As usually defined, the half-life is how long it takes for the measured level to halve. Broadly, the inhibition is the percentage by which the read-out fell short of the control. Usually Vd stands for the apparent volume that relates the amount in the body to the concentration in plasma or blood. A high value points to wide distribution into tissue. Broadly, the ED50 is the dose that gives a 50% effect, or the effect in half of the subjects. Consider `CC[C@]1(c2cccc(NS(C)(=O)=O)c2)[C@@H]2CN(CC3(O)Cc4ccccc4C3)C[C@@H]21` [CP-866087], for which the concentration at 0.75 h in [1] stood at 338 nM; in [7] it was 11.9 nM. Moreover, the Ki on Mu-type opioid receptor [2] worked out at 1 nM; in data set [10], 42 nM; at Mu-type opioid receptor [12] it was 0.28 nM; in data set [16], 170 nM. Also, the fraction unbound at 0.75 h in [3] was 0.034. The clearance in data set [4] is 120 mL/min/kg. Testing at 5.6 mg/kg with Rattus norvegicus [5] gave an inhibition in vivo of 42%. Moreover, the Kp at 0.75 h in data set [6] came out at 2. Moreover, the half-life in data set [8] is 660 min. Besides, 1 mg/kg produced 23% inhibition in vivo with Rattus norvegicus [9]. Further, the CLint scaled in [11] stood at 12 mL/min/kg. In addition, the inhibition at 8 min, 3 µM on CYP2D6 is 6%. In data set [13], this molecule had a Vd of 21.7 L/kg. Moreover, the ED50 in the data set on Rattus norvegicus [14] amounted to 0.1 mg/kg. For the same molecule, the inhibition result with Rattus norvegicus [15] is “Dose-dependent effect”.
As a reminder, the efflux ratio is the permeability from basolateral to apical divided by that in the opposite direction, in the common usage. Broadly, the IC50 is the concentration that inhibits the measured activity by half. Read a low IC50 as greater potency. As for `CC[C@]1(c2cccc(C(N)=O)c2)[C@@H]2CN(CC3(O)Cc4ccccc4C3)C[C@@H]21`, in the data set with human MDR1 (P-gp), the efflux ratio was 2.9. Besides, the Ratio Ki in the data set filed under Homo sapiens [17] worked out at 17; in the data set listed under Homo sapiens [18], 31. Further, the Ki amounted to 3.5 nM on Mu-type opioid receptor [2], 60 nM in data set [10], 0.16 nM on Mu-type opioid receptor [12] and 108 nM in data set [16]. Further, in [11], the CLint scaled was 11 mL/min/kg. Moreover, the inhibition at 8 min, 3 µM against CYP2D6 came to 17%. Further, in [19], the IC50 was 2200 nM.
Usually IC20 stands for the concentration needed for an effect of 20%. Turning to `CC[C@]1(c2cccc(NS(C)(=O)=O)c2)[C@@H]2CN(CCCC3(O)CCCCC3)C[C@@H]21`, the efflux ratio with human MDR1 (P-gp) turned out to be 6.5. For the same molecule, the Ratio Ki in the data set listed under Homo sapiens [17] was determined as 8; in the data set filed under Homo sapiens [18], 83. Moreover, the Ki on Mu-type opioid receptor [2] worked out at 2 nM; in data set [10], 16 nM; at Mu-type opioid receptor [12], 0.18 nM; in [16] it was 166 nM. For the same molecule, the Ratio in data set [20] worked out at 15. Moreover, the CLint scaled in data set [11] amounted to 9 mL/min/kg. Moreover, on CYP2D6, the inhibition at 8 min, 3 µM amounted to 14%. In addition, the ED50 with Rattus norvegicus [14] was 0.63 mg/kg. In addition, the 20% effect concentration (IC20) against hERG (KCNH2) amounted to 320 nM. The same molecule had an IC50 in [19] of 710 nM.
On to `CC[C@]1(c2cccc(NS(C)(=O)=O)c2)[C@@H]2CN(CC3Cc4ccccc4C3)C[C@@H]21`, for which the efflux ratio in the data set on human MDR1 (P-gp) was found to be 3.5. In data set [11], the CLint scaled stood at 19 mL/min/kg. The molecule also returned an inhibition at 8 min, 3 µM on CYP2D6 of 35%. Also, in data set [19], the IC50 amounted to 326 nM.
`O=C1CC[C@@]2(O)[C@H]3Cc4ccc(O)c5c4[C@@]2(CCN3CC2CC2)[C@H]1O5` [NALTREXONE] registered an inhibition in vivo at 3 mg/kg with Rattus norvegicus [21] of 21%.
